The text below walks through data of patent US20120015961A1, “ISOTHIOUREA DERIVATIVES OR ISOUREA DERIVATIVES HAVING BACE1 INHIBITORY ACTIVITY” (SHIONOGI & CO., LTD., priority 2009, published 2012).

The term IC50 denotes the midpoint of a concentration-inhibition curve. As a reminder, the bioavailability is the share of a dose that reaches the circulation, judged against a reference dose that is usually intravenous. As usually defined, the solubility is how much of the substance goes into solution per volume. Higher therefore signals a readily soluble substance.

Data set [1] deals with Neuroblastoma SH-SY5Y cells (SH/APPwt) with human wild-type β-APP excessively expressed. Kind of data set: Measurement of β-amyloid (Aβ) production inhibitory effect in cell. It counts as cell-based. Particulars: Homo sapiens, SH-SY5Y, 24 h, amount needed to inhibit Aβ production by 50%, 24 hours incubation, Amyloid β1-40 HTRF. How it is done:
Neuroblastoma SH-SY5Y cells (SH/APPwt) with human wild-type β-APP excessively expressed therein were prepared at 8×10^5 cells/mL, and 150 μl portions thereof were inoculated into each well of a 96-well culture plate (Falcon). The cells were cultured for 2 hours at 37° C. in a 5% gaseous carbon dioxide incubator. Then, a solution which had been preliminarily prepared by adding and suspending the test compound (DMSO (dimethyl sulfoxide) solution) so as to be 2 μl/50 μl medium was added to the cell sap. Namely, the final DMSO concentration was 1%, and the amount of the cell culture was 200 μl. After the incubation was performed for 24 hours from the addition of the test compound, 100 μl of the culture supernatant was collected from each fraction. The amount of the Aβ in each fraction was measured.
The […] was measured as follows. 10 μl of a homogeneous time resolved fluorescence (HTRF) measurement reagent (Amyloid β1-40 peptide; IBA Molecular Holding, S.A.) and 10 μl of the culture supernatant were put into a 384-well half area microplate (black microplate, Costar) and mixed with each other, and then left standing overnight at 4° C. while the light was shielded. Then, the fluorescence intensity (excitation wavelength: 337 nm, measurement wavelength: 620 nm and 665 nm) was measured with a Wallac 1420 multilabel counter (Perkin Elmer life sciences). The Aβ amount was determined from the count rate at each measurement wavelength (10000×Count 665/Count 620), and the amount needed to inhibit Aβ production by 50% (IC50) was calculated from at least six different dosages.
In general terms: Time-resolved FRET reads energy transfer from a long-lived donor to a nearby acceptor.

The target of data set [2] is T1, CYP1A2 (Homo sapiens, UniProt P05177).
T1 construct: Enzyme, pooled human hepatic microsome 0.2 mg protein/mL; from tissue; host or cells: pooled human hepatic microsomes
T1 sequence (P05177 1-516): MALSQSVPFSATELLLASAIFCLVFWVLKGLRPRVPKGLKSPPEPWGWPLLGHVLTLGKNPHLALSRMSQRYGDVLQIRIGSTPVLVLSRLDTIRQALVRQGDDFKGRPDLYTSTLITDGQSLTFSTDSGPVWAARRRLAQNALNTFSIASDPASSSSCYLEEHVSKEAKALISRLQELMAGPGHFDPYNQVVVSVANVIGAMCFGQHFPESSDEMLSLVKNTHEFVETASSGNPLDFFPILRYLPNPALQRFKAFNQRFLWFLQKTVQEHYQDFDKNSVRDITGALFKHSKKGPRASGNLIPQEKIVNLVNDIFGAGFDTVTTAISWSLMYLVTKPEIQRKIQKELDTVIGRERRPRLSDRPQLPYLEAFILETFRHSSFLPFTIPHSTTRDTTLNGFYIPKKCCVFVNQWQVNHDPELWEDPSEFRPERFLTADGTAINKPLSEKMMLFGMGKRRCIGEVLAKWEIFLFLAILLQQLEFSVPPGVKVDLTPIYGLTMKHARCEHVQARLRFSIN
Kind of data set: CYP inhibition test (CYP1A2). Particulars: pooled human hepatic microsome, 7-ethoxyresorufin O-deethylation. It is filed as in vitro ADME. The procedure:
(§1) Using commercially available pooled human hepatic microsome, and employing, as markers, 7-ethoxyresorufin O-deethylation (CYP1A2), tolbutamide methyl-hydroxylation (CYP2C9), mephenyloin 4′-hydroxylation (CYP2C19), dextromethorphan O-demethylation (CYP2D6), and terfenedine hydroxylation as typical substrate metabolism reactions of human main five CYP enzyme forms (CYP1A2, 2C9, 2C19, 2D6, 3A4), an inhibitory degree of each metabolite production amount by a test compound was assessed.
(§2) The reaction conditions were as follows: […]
(§3) Each five kinds of substrates, human hepatic microsome, or a test drug in 50 mM Hepes buffer as a reaction solution was added to a 96-well plate at the composition as described above, NADPH, a cofactor, was added to initiate metabolism reactions as markers and, after the incubation at 37° C. for 15 minutes, a methanol/acetonitrile=1/1 (v/v) solution was added to stop the reaction. After the centrifugation at 3000 rpm for 15 minutes, resorufin (CYP1A2 metabolite) in the supernatant was quantified by a fluorescent multilabel counter and tributamide hydroxide (CYP2CP metabolite), mephenyloin 4′ hydroxide (CYP2C19 metabolite), […], and terfenadine alcohol (CYP3A4 metabolite) were quantified by LC/MS/MS. […]

Data set [3] has as its target T2, CYP2C9 (Homo sapiens, UniProt P11712).
T2 construct: Enzyme, pooled human hepatic microsome 0.2 mg protein/mL; from tissue; host or cells: pooled human hepatic microsomes
The experiment in a line: CYP inhibition test (CYP2C9). It counts as in vitro ADME. Particulars: pooled human hepatic microsome, tolbutamide methyl-hydroxylation. How it is done: as §1, §2, §3

In data set [4] the target is T3, CYP2C19 (Homo sapiens, UniProt P33261).
T3 construct: Enzyme, pooled human hepatic microsome 0.2 mg protein/mL; from tissue; host or cells: pooled human hepatic microsomes
The experiment in a line: CYP inhibition test (CYP2C19). Particulars: pooled human hepatic microsome, mephenyloin 4′-hydroxylation. It counts as in vitro ADME. The procedure: as §1, §2, §3

Data set [5] concerns the target T4, CYP2D6 (Homo sapiens, UniProt P10635).
T4 construct: Enzyme, pooled human hepatic microsome 0.2 mg protein/mL; from tissue; host or cells: pooled human hepatic microsomes
Kind of data set: CYP inhibition test (CYP2D6). Particulars: pooled human hepatic microsome, dextromethorphan O-demethylation. It is filed as in vitro ADME. How it is done:
as §1, §2, §3

In data set [6] the target is CYP3A4 (Homo sapiens, UniProt P08684). The experiment in a line: CYP inhibition test (CYP3A4). It counts as in vitro ADME. More on the design: Enzyme, pooled human hepatic microsome 0.2 mg protein/mL; from tissue; host or cells: pooled human hepatic microsomes. Particulars: pooled human hepatic microsome, terfenedine hydroxylation. How it is done:
as §1, §2, §3

In data set [7] the target is T5, Recombinant human BACE1 (Homo sapiens, UniProt P56817).
T5 construct: purchased R&D Systems
The experiment in a line: Assay of BACE1 inhibiting activity. It is filed as biochemical. Particulars: 50% inhibitory concentration against enzymatic activity, pH 5.0, 30° C., 3 hours. How it is done: 48.5 μL of substrate peptide solution (Biotin-XSEVNLDAEFRHDSGC-Eu: Xεε-amino-n-capronic acid, Eu=Europium cryptate) was added to each well of 96-hole half-area plate (a black plate: Costar Corporation), and after addition of 0.5 μl of the test compound (dissolved in […]) and 1 μl of Recombinant human BACE1 (R&D Systems), the reaction mixture was incubated at 30° C. for 3 hours. The substrate peptide was synthesized by reacting Cryptate TBPCOOH mono SMP (CIS bio international) with Biotin-XSEVNLDAEFRHDSGC (Peptide Institute, Inc.). The final concentrations of the substrate peptide and Recombinant human BACE1 were adjusted to 18 nM and 7.4 nM respectively, and the reaction was performed in sodium acetate buffer (50 mM sodium acetate, pH 5.0, 0.008% Triton X-100). After the completion of reaction, 50 μl of 8.0 μg/ml Streptavidin-XL665 (CIS bio international) dissolved in phosphate buffer (150 mM K2HPO4—KH2PO4, pH 7.0, 0.008% Triton X-100, 0.8 M KF) was added to each well and left stand at 30° C. for an hour. Then, fluorescence intensity was measured (excitation wavelength: 320 nm, measuring wavelength: 620 nm and 665 nm) using Wallac 1420 multilabel counter (Perkin Elmer life sciences). Enzymatic activity was determined from counting ratio of each wavelength (10,000×Count 665/Count 620) and 50% inhibitory concentration against the enzymatic activity was calculated.

The nature of data set [8]: BA test. It is filed as in vivo. Particulars: rat, plasma; SD rats, from AUCs of oral and intravenous administration. The procedure: Materials and methods for studies on oral absorption
(2) Breeding conditions: rats were allowed to freely take solid feed and sterilized tap water
(3) Dose and grouping: orally or intravenously administered at a predetermined dose; grouping was as follows (Dose depends on the compound)
Oral administration: 1 to 30 mg/kg (n=2 to 3)
Intravenous administration: 0.5 to 10 mg/kg (n=2 to 3)
(4) Preparation of dosing solution: for oral administration, in a solution or a suspension state; for intravenous administration, in a solubilized state
(5) Administration method: in oral administration, forcedly administer into ventriculus with oral probe; in intravenous administration, administer from caudal vein with a needle-equipped syringe
(6) Evaluation items: blood was collected over time, and the plasma concentration of drug was measured by LC/MS/MS
(7) Statistical analysis: regarding the transition of the plasma concentration, the area under the plasma concentration-time curve (AUC) was calculated by non-linear least squares program WinNonlin (Registered trademark), and the bioavailability (BA) was calculated from the AUCs of the oral administration group and intravenous administration group

A short description of data set [9]: Metabolic stability test. It is filed as in vitro ADME. Particulars: human liver microsomes 0.5 mg protein/mL, 1 mmol/L NADPH, 30 minutes at 37° C. How it is done:
The target compound was reacted with commercially available pooled human liver microsomes for a predetermined time period. The residual rate was calculated by comparing the reacted sample and unreacted sample, and thus the degree of metabolism in liver was evaluated.
In 0.2 mL of a buffer (50 mmol/L tris-HCl pH 7.4, 150 mmol/L potassium chloride, 10 mmol/L magnesium chloride) containing human liver microsomes 0.5 mg protein/mL, reaction was carried out in the presence of 1 mmol/L NADPH for 0 minute or 30 minutes at 37° C. (oxidative reaction). After the reaction, 50 μL of the reaction solution was added to and mixed with 100 μL of a solution of methanol/acetonitrile=1/1 (v/v), and the mixture was centrifuged for 15 minutes at 3000 rpm. The test compound in the centrifuged supernatant was quantified by LC/MS/MS, and the residual amount of the test compound after the reaction was calculated based on the compound amount at O-minute reaction set as 100%.

A short description of data set [10]: Solubility test. It is filed as physicochemical. Particulars: JP-I medium with 2% DMSO, pH 1.2, simulated gastric fluid, kinetic from dmso stock, turbidity after 4 hours. The procedure: A 2-fold dilution series (12 points) of a 10 mM solution of a test compound in DMSO was added to a medium (JP-I, JP-II) (2%), and solubility was assessed by 3 stages (High; >40 μM, Medium; 3-40 μM, Low; <3 μM) from a turbidity after 4 hours (crystallization information).

T5 sequence (P56817 46-501): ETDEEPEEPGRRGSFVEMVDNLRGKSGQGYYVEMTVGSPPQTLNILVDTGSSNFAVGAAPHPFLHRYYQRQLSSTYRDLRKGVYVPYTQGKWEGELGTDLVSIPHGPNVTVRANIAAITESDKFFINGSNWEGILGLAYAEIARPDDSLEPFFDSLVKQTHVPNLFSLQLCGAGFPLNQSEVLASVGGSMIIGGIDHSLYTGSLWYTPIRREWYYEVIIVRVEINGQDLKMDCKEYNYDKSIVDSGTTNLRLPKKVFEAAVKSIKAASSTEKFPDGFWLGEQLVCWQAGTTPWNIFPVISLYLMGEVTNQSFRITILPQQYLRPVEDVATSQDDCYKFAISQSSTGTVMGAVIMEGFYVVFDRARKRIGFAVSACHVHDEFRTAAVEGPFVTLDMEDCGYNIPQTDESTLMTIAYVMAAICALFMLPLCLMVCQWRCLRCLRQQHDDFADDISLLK
T2 sequence (P11712 whole entry): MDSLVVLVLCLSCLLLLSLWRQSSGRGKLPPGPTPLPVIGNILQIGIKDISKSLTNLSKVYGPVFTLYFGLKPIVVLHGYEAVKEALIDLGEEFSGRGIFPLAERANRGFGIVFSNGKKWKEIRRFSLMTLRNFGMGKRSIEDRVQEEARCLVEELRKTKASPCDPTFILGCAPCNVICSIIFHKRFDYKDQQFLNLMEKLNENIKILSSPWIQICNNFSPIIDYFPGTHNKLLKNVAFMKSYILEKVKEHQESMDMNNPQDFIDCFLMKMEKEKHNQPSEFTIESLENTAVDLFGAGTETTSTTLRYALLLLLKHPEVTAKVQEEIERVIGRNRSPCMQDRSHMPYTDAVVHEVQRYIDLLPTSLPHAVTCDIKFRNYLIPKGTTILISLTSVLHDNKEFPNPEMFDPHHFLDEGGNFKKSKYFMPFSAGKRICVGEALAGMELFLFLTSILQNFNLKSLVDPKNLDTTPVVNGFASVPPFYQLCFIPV
CYP3A4, sequence (P08684 whole entry): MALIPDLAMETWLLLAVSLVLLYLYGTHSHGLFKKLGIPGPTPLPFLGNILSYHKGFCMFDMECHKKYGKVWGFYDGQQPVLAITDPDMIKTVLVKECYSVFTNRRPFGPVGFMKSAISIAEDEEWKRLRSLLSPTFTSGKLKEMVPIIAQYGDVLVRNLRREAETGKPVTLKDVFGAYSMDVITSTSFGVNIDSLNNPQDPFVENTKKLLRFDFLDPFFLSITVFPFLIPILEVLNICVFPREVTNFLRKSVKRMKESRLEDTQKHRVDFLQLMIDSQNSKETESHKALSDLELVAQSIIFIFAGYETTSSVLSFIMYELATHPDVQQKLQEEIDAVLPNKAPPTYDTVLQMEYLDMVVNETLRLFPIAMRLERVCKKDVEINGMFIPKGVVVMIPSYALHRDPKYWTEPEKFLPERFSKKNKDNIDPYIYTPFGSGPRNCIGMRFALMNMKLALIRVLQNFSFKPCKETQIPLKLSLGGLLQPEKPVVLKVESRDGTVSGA
T4 sequence (P10635 whole entry): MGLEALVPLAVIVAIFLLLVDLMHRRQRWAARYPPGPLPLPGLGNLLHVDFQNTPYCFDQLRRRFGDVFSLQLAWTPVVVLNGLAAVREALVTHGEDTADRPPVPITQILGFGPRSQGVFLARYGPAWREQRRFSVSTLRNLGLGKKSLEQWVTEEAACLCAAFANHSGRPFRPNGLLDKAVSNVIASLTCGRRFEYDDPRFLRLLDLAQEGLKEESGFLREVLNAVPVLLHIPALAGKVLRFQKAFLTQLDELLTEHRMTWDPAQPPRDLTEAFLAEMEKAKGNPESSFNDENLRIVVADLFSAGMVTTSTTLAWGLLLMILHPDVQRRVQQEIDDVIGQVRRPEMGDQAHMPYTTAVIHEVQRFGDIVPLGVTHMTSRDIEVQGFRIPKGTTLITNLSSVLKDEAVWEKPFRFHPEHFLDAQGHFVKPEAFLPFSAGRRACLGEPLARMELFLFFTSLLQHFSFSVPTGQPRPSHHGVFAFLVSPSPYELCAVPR
T3 sequence (P33261 whole entry): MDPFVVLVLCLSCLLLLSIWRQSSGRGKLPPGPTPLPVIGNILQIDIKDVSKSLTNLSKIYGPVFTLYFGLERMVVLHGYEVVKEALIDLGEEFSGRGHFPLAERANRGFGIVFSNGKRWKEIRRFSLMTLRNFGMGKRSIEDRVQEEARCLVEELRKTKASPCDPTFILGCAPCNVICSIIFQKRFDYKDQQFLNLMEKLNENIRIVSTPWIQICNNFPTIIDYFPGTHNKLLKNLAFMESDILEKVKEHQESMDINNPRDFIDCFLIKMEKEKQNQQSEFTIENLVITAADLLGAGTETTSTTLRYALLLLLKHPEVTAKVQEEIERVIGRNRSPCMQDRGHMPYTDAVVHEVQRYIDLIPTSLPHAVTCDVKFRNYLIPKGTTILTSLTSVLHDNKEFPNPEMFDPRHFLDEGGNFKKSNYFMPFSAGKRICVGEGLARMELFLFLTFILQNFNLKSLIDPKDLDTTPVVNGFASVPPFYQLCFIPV

On to `N#Cc1ccc(C(=O)Nc2cccc(C/N=C(\N)OCCCO)c2)nc1` [Compound 36], for which the IC50 was ≤ 1 µM in data set [1]; > 20 µM in data set [2]; > 20 µM in data set [3]; > 20 µM in data set [4]; > 20 µM in data set [5]; > 20 µM in data set [6].
As for `CO/C(N)=N\C1(c2cccc(NC(=O)c3cnc(C)cn3)c2)CC1` [Compound 41], the half-inhibitory concentration (IC50) was ≤ 1 µM in [1]; > 20 µM in [2]; > 20 µM in data set [3]; > 20 µM in data set [4]; > 20 µM in [5]; > 20 µM in data set [6].
For `CO/C(N)=N/C(c1ccccc1)c1cccc(NC(=O)c2ccc(C#N)cn2)c1` (centres unmarked) [Compound 48], the half-inhibitory concentration (IC50) in [7] and in data set [1] was ≤ 1 µM throughout. Further, the bioavailability in data set [8] was 87.2%.
Regarding `CO/C(N)=N/C(c1ccc(F)cc1)c1cccc(NC(=O)c2ccc(C#N)cn2)c1` (centres unmarked) [Compound 50], the IC50 in [7] is 0.188 µM; in data set [1], ≤ 1 µM. The “residual amount of the test compound after the reaction” value in [9] turned out to be 100%.
With `CO/C(N)=N\c1cccc2ncc(NC(=O)c3ccc(C#N)cn3)cc12` [Compound 76], the solubility at 4 h in [10] was > 40 µM. In addition, the “residual amount of the test compound after the reaction” value in data set [9] amounted to 98.9%.
As for `CO/C(N)=N\c1c(C)ccc2ccc(NC(=O)c3ccc(C#N)cn3)cc12` [Compound 77], the IC50 in [7] and in data set [1] was ≤ 1 µM in each case. The compound also showed a bioavailability in [8] of 75%.
